Source: patent US11485742B2, “2-azaspiro[3.4]octane derivatives as M4 agonists” (NOVARTIS AG, priority 2019, dated 2022)

What was measured:
Format in all cases: cell-based
[1] = target: T1, Cloned human M1 receptor (CHRM1) (Homo sapiens, UniProt P11229); assay: CHRM1 Ca++ Flux Assay (HEK293 M1 cells, agonist mode); details: for Emax: Percent Activity (PA), read-out: M1 FDSS PA %; for EC50: geometric mean if tested more than once, read-out: M1 FDSS EC50
T1 construct: expressed in transfected cells; host or cells: HEK293
T1 sequence (P11229 1-460): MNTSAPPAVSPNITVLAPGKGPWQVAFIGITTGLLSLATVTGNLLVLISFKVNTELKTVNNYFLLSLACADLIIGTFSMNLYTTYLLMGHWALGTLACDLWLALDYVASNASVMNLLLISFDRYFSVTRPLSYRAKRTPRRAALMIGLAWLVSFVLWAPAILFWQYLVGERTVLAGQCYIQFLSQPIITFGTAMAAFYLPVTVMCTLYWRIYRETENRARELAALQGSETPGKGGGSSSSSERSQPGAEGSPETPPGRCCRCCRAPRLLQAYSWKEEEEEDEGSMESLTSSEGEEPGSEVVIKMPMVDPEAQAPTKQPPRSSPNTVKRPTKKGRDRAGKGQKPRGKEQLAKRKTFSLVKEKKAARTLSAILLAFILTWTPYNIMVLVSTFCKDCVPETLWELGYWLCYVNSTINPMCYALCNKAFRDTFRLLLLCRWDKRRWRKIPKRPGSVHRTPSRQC
In short: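 In agonist mode, compound-induced intracellular Ca++ mobilization was recorded for 3 min by fluorescent imager. The cells were HEK293 stably expressing cloned human CHRM1, in Ca/Mg-free HBSS with 20 mM HEPES. Triplicate 11-point dose-responses were fitted by four-parameter regression and normalized to the carbachol EC100 response.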

[2] = target: T2, human cloned CHRM3 receptor (Homo sapiens, UniProt P20309); assay: CHRM3 Ca++ Flux Assay (M3_CHO cells, agonist mode); details: for Emax: Percent Activity (PA) measured to EC100 of Carbachol, read-out: M3 FDSS PA %; for EC50: agonist mode, geometric mean if tested more than once, read-out: M3 FDSS EC50
T2 construct: expressed in transfected cells; host or cells: CHO-K1 (M3_CHO)
In short: (§1)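 Agonist-mode calcium mobilisation: compounds, 11 concentrations in triplicate, applied to stable M3_CHO or M5_CHO cells loaded with Ca++ dye, fluorescence followed 3 min. Efficacy expressed against carbachol EC100; EC curves by four-parameter nonlinear regression, geometric mean across independent runs.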

[3] = target: T3, human cloned CHRM5 receptor (Homo sapiens, UniProt P08912); assay: CHRM5 Ca++ Flux Assay (M5_CHO cells, agonist mode); details: for Emax: Percent Activity (PA) measured to EC100 of Carbachol, read-out: M5 FDSS PA %; for EC50: agonist mode, geometric mean if tested more than once, read-out: M5 FDSS EC50
T3 construct: expressed in transfected cells; host or cells: CHO (M5_CHO)
T3 sequence (P08912 1-532): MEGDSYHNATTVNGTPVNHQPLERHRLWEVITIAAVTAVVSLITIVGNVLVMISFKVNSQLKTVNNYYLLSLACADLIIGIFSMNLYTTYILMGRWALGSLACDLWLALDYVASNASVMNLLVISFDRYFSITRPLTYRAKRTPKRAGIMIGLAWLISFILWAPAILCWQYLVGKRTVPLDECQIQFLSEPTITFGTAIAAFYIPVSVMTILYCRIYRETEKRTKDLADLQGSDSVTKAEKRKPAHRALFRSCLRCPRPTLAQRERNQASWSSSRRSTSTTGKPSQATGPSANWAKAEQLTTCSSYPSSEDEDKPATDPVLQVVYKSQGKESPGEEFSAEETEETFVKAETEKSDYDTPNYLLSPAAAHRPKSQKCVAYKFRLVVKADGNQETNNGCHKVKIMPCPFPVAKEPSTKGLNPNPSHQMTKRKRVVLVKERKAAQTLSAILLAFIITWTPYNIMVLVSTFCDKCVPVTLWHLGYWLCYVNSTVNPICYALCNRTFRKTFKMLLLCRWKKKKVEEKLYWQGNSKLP
In short: as §1

T2 sequence (P20309 whole entry): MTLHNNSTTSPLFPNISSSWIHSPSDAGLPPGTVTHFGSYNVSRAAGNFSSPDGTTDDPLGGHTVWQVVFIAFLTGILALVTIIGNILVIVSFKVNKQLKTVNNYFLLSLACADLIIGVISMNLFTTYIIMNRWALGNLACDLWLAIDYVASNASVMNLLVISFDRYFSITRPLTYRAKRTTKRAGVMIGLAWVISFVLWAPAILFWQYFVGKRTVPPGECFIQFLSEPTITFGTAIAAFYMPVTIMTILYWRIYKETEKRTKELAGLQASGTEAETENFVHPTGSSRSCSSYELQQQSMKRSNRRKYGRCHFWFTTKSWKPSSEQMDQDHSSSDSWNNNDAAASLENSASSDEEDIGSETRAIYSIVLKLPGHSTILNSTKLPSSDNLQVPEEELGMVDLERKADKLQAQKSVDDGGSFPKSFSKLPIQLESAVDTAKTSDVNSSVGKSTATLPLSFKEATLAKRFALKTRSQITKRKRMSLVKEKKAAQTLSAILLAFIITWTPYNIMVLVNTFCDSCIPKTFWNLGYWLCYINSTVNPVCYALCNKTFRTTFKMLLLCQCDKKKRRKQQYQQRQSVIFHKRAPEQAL

Row | Structure (SMILES) | Emax [1] | EC50 [1] | Emax [2] | EC50 [2] | Emax [3] | EC50 [3]
1 | c1ccc(C2CCN([C@@H]3COC4(C3)CN(c3ncco3)C4)CC2)c(OC2CC3(COC3)C2)c1 [Example 4M, (S)-7-(4-(2-((2-oxaspiro[3.3]heptan-6-yl)oxy)phenyl)piperidin-1-yl)-2-(oxazol-2-yl)-5-oxa-2-azaspiro[3.4]octane] | 49% | 2810 nM | 0% | > 25000 nM | 0% | > 25000 nM
2 | COc1ccccc1C1CCN([C@@H]2COC3(C2)CN(c2ncco2)C3)CC1 [Example 4N, (S)-7-(4-(2-methoxyphenyl)piperidin-1-yl)-2-(oxazol-2-yl)-5-oxa-2-azaspiro[3.4]octane] | 64% | 384 nM | 0% | > 25000 nM | 0% | > 25000 nM
3 | Fc1cc(OCC2COC2)c(C2CCN([C@@H]3COC4(C3)CN(c3ncco3)C4)CC2)cc1F [Example 4O, (S)-7-(4-(4,5-difluoro-2-(oxetan-3-ylmethoxy)phenyl)piperidin-1-yl)-2-(oxazol-2-yl)-5-oxa-2-azaspiro[3.4]octane] | 63% | 364 nM | 0% | > 25000 nM | 0% | > 25000 nM
4 | Fc1cc(OCC2(F)COC2)c(C2CCN([C@@H]3COC4(C3)CN(c3ncco3)C4)CC2)cc1F [Example 4P, (S)-7-(4-(4,5-difluoro-2-((3-fluorooxetan-3-yl)methoxy)phenyl)piperidin-1-yl)-2-(oxazol-2-yl)-5-oxa-2-azaspiro[3.4]octane] | 89% | 334 nM | 0% | > 25000 nM | 0% | > 25000 nM
5 | Fc1cc(OC2COC2)c(C2CCN([C@@H]3COC4(C3)CN(c3ncco3)C4)CC2)cc1F [Example 4Q, (S)-7-(4-(4,5-difluoro-2-(oxetan-3-yloxy)phenyl)piperidin-1-yl)-2-(oxazol-2-yl)-5-oxa-2-azaspiro[3.4]octane] | 71% | 294 nM | 0% | > 25000 nM | 0% | > 25000 nM
6 | c1ccc(C2CCN([C@@H]3COC4(C3)CN(c3ncco3)C4)CC2)c(-c2cncnc2)c1 [Example 4R, (S)-2-(oxazol-2-yl)-7-(4-(2-(pyrimidin-5-yl)phenyl)piperidin-1-yl)-5-oxa-2-azaspiro[3.4]octane] | 95% | 128 nM | 0% | > 25000 nM | 0% | > 25000 nM
7 | Fc1ccc(C2CCN([C@@H]3COC4(C3)CN(c3ncco3)C4)CC2)c(OC2COC2)c1 [Example 4S, (S)-7-(4-(4-fluoro-2-(oxetan-3-yloxy)phenyl)piperidin-1-yl)-2-(oxazol-2-yl)-5-oxa-2-azaspiro[3.4]octane] | 89% | 624 nM | 0% | > 25000 nM | 0% | > 25000 nM
8 | c1ccc(C2CCN([C@@H]3COC4(C3)CN(c3ncco3)C4)CC2)c(C2CCOCC2)c1 [Example 4V, (S)-2-(oxazol-2-yl)-7-(4-(2-(tetrahydro-2H-pyran-4-yl)phenyl)piperidin-1-yl)-5-oxa-2-azaspiro[3.4]octane] | 72% | 1990 nM | 0% | > 25000 nM | 0% | > 25000 nM
9 | Fc1ccc(C2CCOCC2)c(C2CCN([C@@H]3COC4(C3)CN(c3ncco3)C4)CC2)c1 [Example 4W, (S)-7-(4-(5-fluoro-2-(tetrahydro-2H-pyran-4-yl)phenyl)piperidin-1-yl)-2-(oxazol-2-yl)-5-oxa-2-azaspiro[3.4]octane] | 74% | 1090 nM | 0% | > 25000 nM | 0% | > 25000 nM
10 | COc1ccc(Cl)cc1C1CCN([C@@H]2COC3(C2)CN(c2ncns2)C3)CC1 [Example 5A, (S)-7-(4-(5-chloro-2-methoxyphenyl)piperidin-1-yl)-2-(1,2,4-thiadiazol-5-yl)-5-oxa-2-azaspiro[3.4]octane] | 70% | 630 nM | 0% | > 25000 nM | 0% | > 25000 nM
11 | COc1ccccc1C1CCN([C@@H]2COC3(C2)CN(c2ncns2)C3)CC1 [Example 5B, (S)-7-(4-(2-methoxyphenyl)piperidin-1-yl)-2-(1,2,4-thiadiazol-5-yl)-5-oxa-2-azaspiro[3.4]octane] | 22% | 1570 nM | 0% | > 25000 nM | 0% | > 25000 nM
12 | CC(C)(O)COc1ccc(F)cc1C1CCN([C@@H]2COC3(C2)CN(c2ncns2)C3)CC1 [Example 5C, (S)-1-(2-(1-(2-(1,2,4-thiadiazol-5-yl)-5-oxa-2-azaspiro[3.4]octan-7-yl)piperidin-4-yl)-4-fluorophenoxy)-2-methylpropan-2-ol] | 60% | 1600 nM | 0% | > 25000 nM | 4% | > 25000 nM
13 | COCCOc1ccc(F)cc1C1CCN([C@@H]2COC3(C2)CN(c2ncns2)C3)CC1 [Example 5D, (S)-7-(4-(5-fluoro-2-(2-methoxyethoxy)phenyl)piperidin-1-yl)-2-(1,2,4-thiadiazol-5-yl)-5-oxa-2-azaspiro[3.4]octane] | 60% | 1150 nM | 0% | > 25000 nM | 0% | > 25000 nM
14 | COc1cc(F)ccc1C1CCN([C@@H]2COC3(C2)CN(c2ncns2)C3)CC1 [Example 5E, (S)-7-(4-(4-fluoro-2-methoxyphenyl)piperidin-1-yl)-2-(1,2,4-thiadiazol-5-yl)-5-oxa-2-azaspiro[3.4]octane] | 29% | 2580 nM | 0% | > 25000 nM | 0% | 13000 nM
15 | Cc1nc(COc2ccccc2C2CCN([C@@H]3COC4(C3)CN(c3nncs3)C4)CC2)no1 [Example 5F, (S)-7-(4-(2-((5-methyl-1,2,4-oxadiazol-3-yl)methoxy)phenyl)piperidin-1-yl)-2-(1,3,4-thiadiazol-2-yl)-5-oxa-2-azaspiro[3.4]octane] | 106% | 11 nM | 15% | 11800 nM | 35% | 2530 nM
16 | Fc1ccc(OC2COC2)c(C2CCN([C@@H]3COC4(C3)CN(c3nncs3)C4)CC2)c1 [Example 5G, (S)-7-(4-(5-fluoro-2-(oxetan-3-yloxy)phenyl)piperidin-1-yl)-2-(1,3,4-thiadiazol-2-yl)-5-oxa-2-azaspiro[3.4]octane] | 88% | 311 nM | 0% | > 25000 nM | 0% | > 25000 nM
17 | Fc1ccc(O[C@@H]2CCOC2)c(C2CCN([C@@H]3COC4(C3)CN(c3nncs3)C4)CC2)c1 [Example 5H, (S)-7-(4-(5-fluoro-2-(((R)-tetrahydrofuran-3-yl)oxy)phenyl)piperidin-1-yl)-2-(1,3,4-thiadiazol-2-yl)-5-oxa-2-azaspiro[3.4]octane] | 67% | 432 nM | 0% | > 25000 nM | 0% | > 25000 nM
18 | Fc1ccc(OC[C@@H]2CCOC2)c(C2CCN([C@@H]3COC4(C3)CN(c3nncs3)C4)CC2)c1 [Example 5I, (S)-7-(4-(5-fluoro-2-(((R)-tetrahydrofuran-3-yl)methoxy)phenyl)piperidin-1-yl)-2-(1,3,4-thiadiazol-2-yl)-5-oxa-2-azaspiro[3.4]octane] | 69% | 775 nM | 0% | > 25000 nM | 0% | > 25000 nM
